The values below come from patent US12378231B2, “Small molecules as monoacylglycerol lipase (MAGL) inhibitors, compositions and use thereof” (APOGEE PHARMACEUTICALS, INC., priority 2023, dated 2025).

The target in test [1] is human recombinant MAGL (Homo sapiens (Human), UniProt Q99685). In words: In vitro inhibition of human recombinant MAGL activity (Cayman inhibitor screening kit, 4-nitrophenylacetate hydrolysis). Type of test: biochemical. To be noted: human recombinant MAGL; read-out: Inhibition on MAGL activity (IC50). The source says:
The inhibitory effect of the synthetic chemicals on activity of human recombinant MAGL was studied using commercial inhibitor screening kit (Cayman Chemical). […] The absorbance of the yellow product can be analyzed using the plate reader. […]

The target of test [2] is human recombinant FAAH (Homo sapiens (Human), UniProt O00519). The test is described as follows: In vitro inhibition of human recombinant FAAH activity (Cayman FAAH inhibitor screening kit, AMC arachidonoyl amide hydrolysis). Type of test: biochemical. The source says: In brief, FAAH hydrolyzes AMC arachidonoyl amide resulting in the release of the fluorescent product, while the inhibitor will inhibit the FAAH activity and thus reduce the fluorescent signal.
Sequence of human recombinant FAAH (O00519 whole entry): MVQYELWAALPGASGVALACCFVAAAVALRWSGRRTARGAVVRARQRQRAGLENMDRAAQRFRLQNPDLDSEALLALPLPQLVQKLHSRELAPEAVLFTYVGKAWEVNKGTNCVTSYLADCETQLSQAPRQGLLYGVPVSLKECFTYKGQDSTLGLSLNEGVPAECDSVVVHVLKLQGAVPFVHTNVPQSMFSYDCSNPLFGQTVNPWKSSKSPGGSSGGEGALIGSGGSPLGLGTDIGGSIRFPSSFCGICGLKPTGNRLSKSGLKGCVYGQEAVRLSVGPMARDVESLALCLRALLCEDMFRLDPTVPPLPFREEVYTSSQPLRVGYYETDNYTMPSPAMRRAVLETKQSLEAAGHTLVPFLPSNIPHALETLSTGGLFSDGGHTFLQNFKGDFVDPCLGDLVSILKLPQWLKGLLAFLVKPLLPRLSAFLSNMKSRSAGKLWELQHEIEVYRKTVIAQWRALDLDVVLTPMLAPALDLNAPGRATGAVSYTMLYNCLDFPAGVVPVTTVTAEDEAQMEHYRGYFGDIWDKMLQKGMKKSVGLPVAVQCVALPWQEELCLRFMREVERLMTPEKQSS

Sequence of human recombinant MAGL (Q99685 whole entry): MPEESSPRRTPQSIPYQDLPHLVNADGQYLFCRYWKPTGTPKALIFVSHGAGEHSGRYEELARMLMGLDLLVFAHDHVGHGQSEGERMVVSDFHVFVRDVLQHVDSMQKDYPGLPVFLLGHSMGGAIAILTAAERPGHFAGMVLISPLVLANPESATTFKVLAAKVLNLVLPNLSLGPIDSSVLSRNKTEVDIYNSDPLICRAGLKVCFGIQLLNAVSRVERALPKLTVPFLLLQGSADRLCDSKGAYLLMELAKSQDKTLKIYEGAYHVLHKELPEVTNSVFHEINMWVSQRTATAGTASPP

Turning to `C=COc1ccc(N(c2ccc(F)cc2)C2CCN(C(=O)n3nnc4ccc(C#N)cc43)CC2)cc1` [Example 76, 1-(4-((4-fluorophenyl)(4-(vinyloxy)phenyl)amino)piperidine-1-carbonyl)-1H-benzo[d][1,2,3]triazole-6-carbonitrile], the figures for the IC50 in test [1] and in test [2] were 1 to 10 nM and 100 to 1000 nM, respectively.

In the case of `O=C(N1CCN(C(c2ccc3c(c2)COCO3)c2ccc3c(c2)COCO3)CC1)n1nnc2ccccc21` [Example 8, (1H-benzo[d][1,2,3]triazol-1-yl)(4-(bis(4H-benzo[d][1,3]dioxin-6-yl)methyl)piperazin-1-yl)methanone], the values for the IC50 in test [1] and in test [2] were 1 to 20 nM and more than 20000 nM, respectively.

For `O=C(N1CCN(C(c2ccc3c(c2)COCO3)c2ccc3c(c2)COCO3)CC1)n1nnc2cc(C(F)(F)F)ccc21` [Example 45, (4-(bis(4H-benzo[d][1,3]dioxin-6-yl)methyl)piperazin-1-yl)(5-(trifluoromethyl)-1H-benzo[d][1,2,3]triazol-1-yl)methanone], the IC50 (as a rule, the midpoint of a concentration-inhibition curve) in test [1] is 10 to 100 nM; in test [2], more than 1000 nM.

Take `O=C(N1CCN(C(c2ccc3c(c2)COCO3)c2ccc3c(c2)COCO3)CC1)n1cc(-c2ccccc2)nn1` [Example 25, (4-(bis(4H-benzo[d][1,3]dioxin-6-yl)methyl)piperazin-1-yl)(4-phenyl-1H-1,2,3-triazol-1-yl)methanone]: the IC50 is 10 to 100 nM in test [1] and more than 10000 nM in test [2].

For the molecule `O=C(N1CCN(C(c2ccc3c(c2)COCO3)c2ccc3c(c2)COCO3)CC1)n1ncc(-c2ccccc2)n1` [Example 26, (4-(bis(4H-benzo[d][1,3]dioxin-6-yl)methyl)piperazin-1-yl)(4-phenyl-2H-1,2,3-triazol-2-yl)methanone], the IC50 in test [1] was in the range of 10 to 100 nM; in test [2], 1000 to 10000 nM.

As for `CCN(C(=O)N1CCN(C(c2ccc3c(c2)COCO3)c2ccc3c(c2)COCO3)CC1)C(C)C` [Example 11, 4-(bis(4H-benzo[d][1,3]dioxin-6-yl)methyl)-N-ethyl-N-isopropylpiperazine-1-carboxamide], the IC50 in test [1] is more than 100 nM; in test [2], more than 50000 nM.

Regarding `N#Cc1ccc2nnn(C(=O)N3CCCN(C(c4ccc5c(c4)COCO5)c4ccc5c(c4)COCO5)CC3)c2c1` [Example 51, 1-(4-(bis(4H-benzo[d][1,3]dioxin-6-yl)methyl)-1,4-diazepane-1-carbonyl)-1H-benzo[d][1,2,3]triazole-6-carbonitrile], the results for the IC50 in test [1] and in test [2] were 10 to 100 nM and more than 10000 nM, respectively.

Turning to `N#Cc1ncn(C(=O)N2CCN(C(c3ccc4c(c3)CCO4)c3ccc4c(c3)CCO4)CC2)n1` [Example 107, 1-(4-(bis(2,3-dihydrobenzofuran-5-yl)methyl)piperazine-1-carbonyl)-1H-1,2,4-triazole-3-carbonitrile], the IC50 lay within 1 to 10 nM in test [1] and 1000 to 10000 nM in test [2].

On to `N#Cc1ccc2nnn(C(=O)N3CCC(N(c4ccc(F)cc4)c4ccc(F)cc4)CC3)c2c1` [Example 61, 1-(4-(bis(4-fluorophenyl)amino)piperidine-1-carbonyl)-1H-benzo[d][1,2,3]triazole-6-carbonitrile], for which the IC50 in test [1] fell in the range of 1 to 10 nM; in test [2], 100 to 1000 nM.

With `O=C(ON1C(=O)CCC1=O)N1CCN(C(c2ccc3c(c2)COCO3)c2ccc3c(c2)COCO3)CC1` [Example 6, 2,5-dioxopyrrolidin-1-yl 4-(bis(4H-benzo[d][1,3]dioxin-6-yl)methyl)piperazine-1-carboxylate], the IC50 was more than 100 nM in test [1] and more than 50000 nM in test [2].

Regarding `COc1ccc(OC(=O)N2CCN(C(c3ccc4c(c3)COCO4)c3ccc4c(c3)COCO4)CC2)cc1` [Example 14, 4-methoxyphenyl 4-(bis(4H-benzo[d][1,3]dioxin-6-yl)methyl)piperazine-1-carboxylate], the IC50 is more than 100 nM in test [1] and more than 50000 nM in test [2].

Consider `N#Cc1ccc2nnn(C(=O)N3CCC(N(c4ccc(C(F)(F)F)cc4)c4ccc5c(c4)OCO5)CC3)c2c1` [Example 69, 1-(4-(benzo[d][1,3]dioxol-5-yl(4-(trifluoromethyl)phenyl)amino)piperidine-1-carbonyl)-1H-benzo[d][1,2,3]triazole-6-carbonitrile], for which the IC50 in test [1] is 1 to 10 nM; in test [2], 100 to 1000 nM.

On to `O=C(Oc1ccc2c(c1)CCC2)N1CCN(C(c2ccc3c(c2)COCO3)c2ccc3c(c2)COCO3)CC1` [Example 12, 2,3-dihydro-1H-inden-5-yl 4-(bis(4H-benzo[d][1,3]dioxin-6-yl)methyl)piperazine-1-carboxylate], for which the IC50 was more than 100 nM in test [1] and more than 10000 nM in test [2].

On to `COc1ccc(C(c2ccc(OC)cc2)N2CCN(C(=O)n3nnc4cc(C#N)ccc43)CC2)cc1` [Example 89, 1-(4-(bis(4-methoxyphenyl)methyl)piperazine-1-carbonyl)-1H-benzo[d][1,2,3]triazole-5-carbonitrile], for which the IC50 in test [1] was in the range of 10 to 100 nM; in test [2] it was 1000 to 10000 nM.

Regarding `O=C(Oc1c(F)c(F)c(F)c(F)c1F)C1CCN(C(c2ccc3c(c2)COCO3)c2ccc3c(c2)COCO3)CC1` [Example 54, pentafluorophenyl 1-(bis(4H-benzo[d][1,3]dioxin-6-yl)methyl)piperidine-4-carboxylate], the values for the IC50 in test [1] and in test [2] were more than 100 nM and more than 50000 nM, respectively.

In the case of `CN(CCOC(c1ccc2c(c1)COCO2)c1ccc2c(c1)COCO2)C(=O)n1nnc2ccc(C#N)cc21` [Example 55, N-(2-(bis(4H-benzo[d][1,3]dioxin-6-yl)methoxy)ethyl)-6-cyano-N-methyl-1H-benzo[d][1,2,3]triazole-1-carboxamide], the IC50 was 1 to 10 nM in test [1] and 1000 to 10000 nM in test [2].

Regarding `COc1ccc(N(c2ccc(F)cc2)C2CCN(C(=O)n3nnc4ccc(C#N)cc43)CC2)cc1` [Example 65, 1-(4-((4-fluorophenyl)(4-methoxyphenyl)amino)piperidine-1-carbonyl)-1H-benzo[d][1,2,3]triazole-6-carbonitrile], the IC50 in test [1] fell in the range of 1 to 10 nM; in test [2], 100 to 1000 nM.

As to `O=C(C1CCN(C(c2ccc3c(c2)COCO3)c2ccc3c(c2)COCO3)CC1)n1nnc2ccccc21` [Example 52, (1H-benzo[d][1,2,3]triazol-1-yl)(1-(bis(4H-benzo[d][1,3]dioxin-6-yl)methyl)piperidin-4-yl)methanone], the results for the IC50 in test [1] and in test [2] were more than 100 nM and more than 50000 nM, respectively.

`COc1cccc(C(c2cccc(OC)c2)N2CCN(C(=O)n3nnc4cc(C#N)ccc43)CC2)c1` [Example 96, 1-(4-(bis(3-methoxyphenyl)methyl)piperazine-1-carbonyl)-1H-benzo[d][1,2,3]triazole-5-carbonitrile]: the IC50 lay within 1 to 10 nM in test [1] and 1000 to 10000 nM in test [2].

Regarding `O=C(Oc1c(F)c(F)c(F)c(F)c1F)N1CCN(C(c2ccc3c(c2)COCO3)c2ccc3c(c2)COCO3)CC1` [Example 29, pentafluorophenyl 4-(bis(4H-benzo[d][1,3]dioxin-6-yl)methyl)piperazine-1-carboxylate], the IC50 was more than 100 nM in test [1] and more than 50000 nM in test [2].

Regarding `O=C(N1CCN(C(c2ccc3c(c2)COCO3)c2ccc3c(c2)COCO3)CC1)n1ncc2ccccc21` [Example 35, (4-(bis(4H-benzo[d][1,3]dioxin-6-yl)methyl)piperazin-1-yl)(1H-indazol-1-yl)methanone], the IC50 was more than 100 nM in test [1] and more than 50000 nM in test [2].

As to `N#Cc1ccc2nnn(C(=O)N3CCC(N(c4ccc5c(c4)OCO5)c4ccc5c(c4)OCO5)CC3)c2c1` [Example 67, 1-(4-(bis(benzo[d][1,3]dioxol-5-yl)amino)piperidine-1-carbonyl)-1H-benzo[d][1,2,3]triazole-6-carbonitrile], the IC50 was in the range of 1 to 10 nM in test [1] and 100 to 1000 nM in test [2].

With “1-(4-(di(pyridin-3-yl)methyl)piperazine-1-carbonyl)-1H-benzo[d][1,2,3]triazole-6-carbonitrile and 1-(4-(di(pyridin-3-yl)methyl)piperazine-1-carbonyl)-1H-benzo[d][1,2,3]triazole-5-carbonitrile [Example 105]”, the results for the IC50 in test [1] and in test [2] were 10 to 1000 nM and more than 10000 nM, respectively.

For the molecule `O=C(Nc1cccnc1)N1CCN(C(c2ccc3c(c2)COCO3)c2ccc3c(c2)COCO3)CC1` [Example 43, 4-(bis(4H-benzo[d][1,3]dioxin-6-yl)methyl)-N-(pyridin-3-yl)piperazine-1-carboxamide], the results for the IC50 in test [1] and in test [2] were more than 100 nM and more than 50000 nM, respectively.

As to `O=C(N1CCN(C(c2ccc3c(c2)COCO3)c2ccc3c(c2)COCO3)CC1)n1nnc2c(Cl)cc(C(F)(F)F)cc21` [Example 42, (4-(bis(4H-benzo[d][1,3]dioxin-6-yl)methyl)piperazin-1-yl)(4-chloro-6-(trifluoromethyl)-1H-benzo[d][1,2,3]triazol-1-yl)methanone], the values for the IC50 in test [1] and in test [2] were 1 to 10 nM and more than 20000 nM, respectively.

Regarding `O=C(N1CCN(C(c2ccc3c(c2)CCO3)c2ccc3c(c2)CCO3)CC1)n1nnc2ccccc21` [Example 108, (1H-benzo[d][1,2,3]triazol-1-yl)(4-(bis(2,3-dihydrobenzofuran-5-yl)methyl)piperazin-1-yl)methanone], the values for the IC50 in test [1] and in test [2] were 1 to 10 nM and approximately 10000 nM, respectively.

As for “1-(4-((4-methoxyphenyl)(pyridin-3-yl)methyl)piperazine-1-carbonyl)-1H-benzo[d][1,2,3]triazole-6-carbonitrile and 1-(4-((4-methoxyphenyl)(pyridin-3-yl)methyl)piperazine-1-carbonyl)-1H-benzo[d][1,2,3]triazole-5-carbonitrile [Example 103]”, the IC50 was 1 to 10 nM in test [1] and 1000 to 10000 nM in test [2].

Turning to `O=C(N1CCCCC1)N1CCN(C(c2ccc3c(c2)COCO3)c2ccc3c(c2)COCO3)CC1` [Example 17, (4-(bis(4H-benzo[d][1,3]dioxin-6-yl)methyl)piperazin-1-yl)(piperidin-1-yl)methanone], the IC50 in test [1] is more than 100 nM; in test [2], more than 50000 nM.
